Columns and labels:
[1] = test system: root-knot nematode Meloidogyne sp; experiment: Soil nematicide assay targeting root-knot nematode Meloidogyne sp on tomato (granular formulation); format: in vivo; settings: 1 kg/ha, granular formulation of 5% active ingredient on gypsum carrier, infested soil, tomato plants, visual estimation
Description: Soil nematicide assay targeting root-knot nematode Meloidogyne sp on tomato
The test compounds were applied as granular formulations of 5% active ingredient on a gypsum carrier to soil infested with root-knot nematodes. Tomato plants were transplanted into the soil. After galling developed in untreated control plants, tomato plants were harvested and the roots assessed for root knot galling. Based on visual estimation, the percentage of the tomato root-mass that was galled was determined. Percent control root-knot was calculated for the treated plants relative to untreated control plants using the following formula: % control of root knot galling=100×((galling level of untreated plants−galling level of treated plants)/galling level of untreated plants)
In this test, compound A which is known from EP-A 1 000 946 as example 1 acted as comparison active ingredient.

[2] = test system: root-knot nematode Meloidogyne incognita; experiment: Soil nematicide assay targeting root-knot nematode Meloidogyne incognita on tomato (soil drench); format: in vivo; settings: tomato plants, one month after inoculation with 1000 J2 larvae
Excerpt: Soil nematicide assay targeting root-knot nematode Meloidogyne incognita on tomato The test compounds were solubilized in acetone and diluted with water and surfactant to the required test concentrations. The test solution was applied as a soil drench to transplanted tomato plants in cells with sandy loam mixed with sand. One thousand root-knot J2 larvae were applied as an aqueous suspension drenched on the soil surface. The plants were maintained in the greenhouse and, one month after inoculation, the plant roots were washed free of soil. The root-knot galls on the root system of each plant were counted. Treatments were replicated three times. Percent control of root-knot was calculated for the treated plants relative to control plants treated with the acetone-surfactant carrier using the following formula: % control of root knot galls=100×((median number of galls on control plants−median number of galls on treated plants)/median number of galls on control plants) In this test, compound A which is known from EP-A 1 000 946 as example 1 acted as comparison active ingredient.

| Structure (SMILES) | % control of root knot galling [1] [%] | % control of root knot galls ([2]; 0.16 kg/ha) [%] | % control of root knot galls ([2]; 0.63 kg/ha) [%] |
| --- | --- | --- | --- |
| FC(F)=C(F)CCSc1nc2ncccc2s1 [compound A] | 25 | 13 | 71 |
| FC(F)=C(F)CCSc1nc2cccnc2s1 [I.1—1, 2-(3,4,4-Trifluoro-but-3-enylsulfanyl)-thiazolo[5,4-b]pyridine] | 47 | 94 | 100 |

Source: patent US7105524B2, “Pesticidal and parasiticidal di-and trifluorosubstituted alkene compounds” (BASF Aktiengesellschaft, priority 2001, dated 2006)
